Target: Hexokinase-4 (Human, UniProt P35557)
Test: Glucokinase Activity Assay
Protocol: Recombinant human liver glucokinase was expressed as a FLAG fusion protein in E. coli, and purified on […] M2 AFFINITY GEL (Sigma). The assay was carried out at 30° C. in a 96-well plate. In the plate was distributed 69 μl each of assay buffer (25 mM Hepes Buffer: pH=7.2, 2 mM MgCl2, 1 mM ATP, 0.5 mM TNAD, 1 mM dithiothreitol), to which was added 1 μl of a DMSO solution of the compound or DMSO as control. Then, 20 μl of pre-ice-cooled enzyme mixture (FLAG-GK, 20 U/ml G6PDH) was distributed thereto, to which was added 10 μl of 25 mM glucose as substrate to initiate the reaction (final glucose concentration=2.5 mM). After starting the reaction, the absorbance at 405 nm was measured every 30 seconds for 10 minutes to evaluate the compound based on the initial increase for 5 minutes. FLAG-GK was added so that the increase of absorbance after 5 minutes fell between 0.05 to 0.1 in the presence of 1% DMSO.

Chain of Hexokinase-4 (P35557 whole entry, other chains not shown): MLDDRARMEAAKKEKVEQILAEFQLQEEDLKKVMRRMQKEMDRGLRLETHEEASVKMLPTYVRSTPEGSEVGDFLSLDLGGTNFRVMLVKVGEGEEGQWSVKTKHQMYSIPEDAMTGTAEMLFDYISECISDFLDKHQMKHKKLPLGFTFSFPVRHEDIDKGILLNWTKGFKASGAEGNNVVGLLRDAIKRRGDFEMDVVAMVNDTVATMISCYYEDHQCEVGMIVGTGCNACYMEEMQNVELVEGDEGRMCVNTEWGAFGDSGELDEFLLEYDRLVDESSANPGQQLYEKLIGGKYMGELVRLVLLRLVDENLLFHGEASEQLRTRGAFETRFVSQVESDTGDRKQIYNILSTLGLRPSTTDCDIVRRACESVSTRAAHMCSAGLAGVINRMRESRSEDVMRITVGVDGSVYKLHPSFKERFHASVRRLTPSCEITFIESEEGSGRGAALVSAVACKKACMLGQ

Row | SMILES | EC50 [nM]
1 | CCOC(=O)C(C)(C)CSc1cnc(NC(=O)c2nc(Sc3nncn3C)ccc2Sc2ccc(F)cc2)s1 [US9527838, 20] | 16.9
2 | CCOC(=O)Cc1nc(NC(=O)c2nc(Sc3ccc(F)cc3)ccc2Sc2ccc(F)cc2)sc1Cl [US9527838, 29] | 16000
3 | CCOC(=O)CSc1cnc(NC(=O)c2nc(Sc3ccc(F)cc3)ccc2Sc2ccc(F)cc2)s1 [US9527838, 27] | 386

— BindingDB's records for patent US9527838 (Merck Sharp & Dohme Corp, 2016)
